Test results from BindingDB's records for doi:10.1021/jm5003167 (Bristol-Myers Squibb, 2014).

Key:
[1] = Antagonist activity at CCR1 receptor in human THP1 cells assessed as inhibition of MIP-1alpha induced chemotaxis after 60 mins
[2] = Antagonist activity at CCR1 receptor in human THP1 cells assessed as inhibition of MCP3-induced chemotaxis after 60 mins
[3] = Antagonist activity at CCR1 receptor in human THP1 cells assessed as inhibition of MIP-1alpha-induced chemotaxis after 60 mins
[4] = Antagonist activity at CCR1 receptor in human THP1 cells assessed as inhibition of HCC1-induced chemotaxis after 60 mins
[5] = Antagonist activity at CCR1 receptor in human THP1 cells assessed as inhibition of LKN1-induced chemotaxis after 60 mins
[6] = Antagonist activity at CCR1 receptor in human THP1 cells assessed as inhibition of HCC4-induced chemotaxis after 60 mins
[7] = Antagonist activity at CCR1 receptor in human THP1 cells assessed as inhibition of RANTES-induced chemotaxis after 60 mins
[8] = Antagonist activity at CCR1 receptor in human THP1 cells assessed as inhibition of MPIF1-induced chemotaxis after 60 mins

Row | IC50 [1] [nM] | SMILES | other results
1 | 3 | CC(C)[C@@H](NC(=O)NC1CCCC1)C(=O)N1CC[C@](O)(c2ccc(Cl)cc2)C(C)(C)C1 | 
2 | 6 | CC(C)[C@@H](NC(=O)N[C@H]1CC[C@@H](O)C1)C(=O)N1CC[C@](O)(c2ccc(Cl)cc2)C(C)(C)C1 | 
3 | 6 | CC[C@@H](C)NC(=O)N[C@@H](C(=O)N1CC[C@](O)(c2ccc(Cl)cc2)C(C)(C)C1)C(C)C [US8633226, 897] | 
4 | 6 | CC(C)[C@@H](NC(=O)NCC(C)(C)O)C(=O)N1CC[C@](O)(c2ccc(Cl)cc2)C(C)(C)C1 | IC50 [2]: 9.3 nM; IC50 [3]: 5.5 nM; IC50 [4]: 7.5 nM; IC50 [5]: 16 nM; IC50 [6]: 3.2 nM; IC50 [7]: 3.3 nM; IC50 [8]: 14 nM
5 | 10 | CC(C)[C@@H](NC(=O)N[C@H]1CC[C@H](O)C1)C(=O)N1CC[C@](O)(c2ccc(Cl)cc2)C(C)(C)C1 | 
6 | 7 | CC(C)[C@@H](NC(=O)NC[C@H](C)O)C(=O)N1CC[C@](O)(c2ccc(Cl)cc2)C(C)(C)C1 | 
7 | 19 | CC(C)[C@@H](NC(=O)N[C@@H]1CC[C@@H](O)C1)C(=O)N1CC[C@](O)(c2ccc(Cl)cc2)C(C)(C)C1 | 
8 | 22 | CC(C)[C@@H](NC(=O)CCC(C)(C)O)C(=O)N1CC[C@](O)(c2ccc(Cl)cc2)C(C)(C)C1 | 
9 | 4 | CC(C)[C@@H](NC(=O)N[C@@H]1CC[C@H](O)C1)C(=O)N1CC[C@](O)(c2ccc(Cl)cc2)C(C)(C)C1 | 
10 | 6 | CC(C)[C@@H](NC(=O)NC[C@@H](C)O)C(=O)N1CC[C@](O)(c2ccc(Cl)cc2)C(C)(C)C1 | 
